{"source": "paper PMC10610214", "about": "(Pharmaceuticals, 2023)", "key": {"NO in BV2 cells": {"tested_on": "NO in BV2 cells", "experiment": "NO production in LPS-stimulated BV2 cells (Griess)", "type": "cell-based", "settings": "Mus musculus, BV-2, 24 h, read-out: NO inhibition IC50", "experimental": "The cytotoxicity of compounds on BV2 cells were evaluated by MTT assay and similar to those described in Section 2.5. The NO concentrations in medium were determined using Griess Reagent assay (Beyotime) in accordance with a previously reported method. Nitrite is reduced to nitrogen oxide using Griess Reagent I. Nitrogen oxide then reacts with Griess Reagent II forming a stable product that can be detected by its absorbance at […]. The two-step assay is simple, fast, and can detect nitrite levels as low as 1 nmol/well. BV2 cells were seeded into a 48-well plate at a density of 6.0 × 10^4 cells per well. After the cells were incubated overnight, the old medium was discarded. Then, the cells were pretreated with various concentrations (10, 5, 1, 0.5, and 0.1 μM) of compounds for 1 h and then co-incubated with LPS (1 μg/mL, 30 μL/well) for 24 h. After 24 h, the cell supernatant (50 μL/well) was placed into a new 96-well plate for experiment. […] The absorbance at […] was measured by a microplate reader."}, "Aβ1-42": {"molecular_target": "Aβ1-42 (Homo sapiens, UniProt P05067)", "sequence (P05067 672-713 limits assumed)": "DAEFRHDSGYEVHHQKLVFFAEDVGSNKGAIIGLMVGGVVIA", "experiment": "Self-induced Aβ1-42 aggregation, thioflavin T fluorescence", "type": "biochemical", "design": "final concentrations of 20 μM of Aβ1-42 and 100 μM of test compound; purchased Beyotime Institute of Biotechnology", "settings": "100 μM inhibitor; ThT; 48 h; read-out: Inhibition of Self-Induced Aβ Aggregation (%)", "experimental": "The inhibitory effect of compounds on Aβ42 was determined by Thioflavin T (ThT) fluorescence assay. In short, the dilution of Aβ42 solution (Beyotime Biotechnology, Hang Zhou, China) and test compounds was carried out with phosphate buffer (50 mM, pH 7.4) to obtain final concentrations of 20 μM of Aβ1-42 and 100 μM of test compound, such as curcumin (20 μM). The mixture was incubated in 96-well plates at room temperature for 48 h in the dark. When the incubation was complete, the samples were diluted to 200 µL (final volume) with glycine–NaOH buffer (50 mM, pH 8.0) containing 5 μM ThT."}, "P-gp (MDR1)": {"tested_on": "P-gp (MDR1)", "experiment": "in vitro", "type": "in vitro ADME", "settings": "dog, MDCK-MDR1, MDCKII-MDR1", "experimental": "(§1) Specifically, MDCKII-MDR1 cells (1 × 10^5 cell/cm^2) were seeded on polyester 12-well Transwell inserts (pore size: […], diameter: 12 mm, apical volume: 0.5 mL, basolateral: volume 1.5 mL) and cultured for 5–7 days to reach full differentiation as per TEER readings > 250 Ω·cm. […] After an incubation time of 2 h, samples were removed from the apical and basolateral side of the monolayer and were stored at −80 °C until further analysis.\n(§2) The Papp was calculated according to the following equation (units of cm/s):(1) Papp=Va/area×time×Drugacceptor/Druginitial where “Va” is the volume in the acceptor well, “time” is the total transport time, “area” is the surface area of the membrane, “[Drug]initial” is the initial drug concentration in the AP or BL chamber, and “[Drug]acceptor” is the concentration of the drug in the acceptor chamber.\n(§3) The ER was calculated using the following equation:ER = Papp, BL-AP/Papp, AP-BL(2) where “Papp, BL-AP” is the apparent permeability of basal-to-apical transport, and “Papp, AP-BL” is the apparent permeability of apical-to-basal transport."}, "MDCKII-MDR1 cells": {"tested_on": "MDCKII-MDR1 cells", "experiment": "in vitro", "type": "in vitro ADME", "settings": "efflux ratio", "experimental": "as §1, §2, §3"}, "BV2 cells": {"tested_on": "BV2 cells", "experiment": "LPS-induced ROS production in BV2 cells", "type": "cell-based", "settings": "4h 7.5, 15, 30 μM", "experimental": "Intracellular ROS levels was detected by the ROS assay kit (Biyuntian Biotechnology, Hang Zhou, China). […] The control group involved culturing the BV2 microglia cells in normal culture media without any treatment. Then, the cells were washed with PBS (pH 7.2) and incubated with DCFH-DA at 37 °C for 20 min. Finally, cells were washed with DMEM and the fluorescence intensity was observed under confocal laser scanning microscope."}, "AChE (from electric eel)": {"molecular_target": "T1, AChE (from electric eel) (Electrophorus electricus, UniProt O42275)", "T1 construct": "AChE (from electric eel); purchased Sigma Chemical Company (St. Louis, MO, USA)", "T1 sequence (O42275 24-633)": "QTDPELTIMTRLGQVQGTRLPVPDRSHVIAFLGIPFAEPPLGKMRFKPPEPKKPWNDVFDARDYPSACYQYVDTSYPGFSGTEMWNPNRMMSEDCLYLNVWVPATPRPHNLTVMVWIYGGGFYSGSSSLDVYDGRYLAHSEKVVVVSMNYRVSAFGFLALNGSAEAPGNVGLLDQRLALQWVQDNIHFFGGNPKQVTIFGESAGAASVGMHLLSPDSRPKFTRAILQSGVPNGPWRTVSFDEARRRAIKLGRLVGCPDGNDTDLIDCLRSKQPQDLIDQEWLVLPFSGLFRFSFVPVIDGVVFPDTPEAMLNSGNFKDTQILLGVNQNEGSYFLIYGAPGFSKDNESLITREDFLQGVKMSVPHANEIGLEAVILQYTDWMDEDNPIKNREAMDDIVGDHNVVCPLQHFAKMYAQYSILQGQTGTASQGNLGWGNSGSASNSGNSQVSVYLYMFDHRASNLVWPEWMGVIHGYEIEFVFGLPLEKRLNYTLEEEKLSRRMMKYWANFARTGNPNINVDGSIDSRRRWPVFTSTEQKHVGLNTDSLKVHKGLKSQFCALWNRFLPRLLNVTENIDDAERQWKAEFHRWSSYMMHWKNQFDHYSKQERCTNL", "experiment": "biochemical", "experimental": "(§4) The ChE inhibitory activity of the test compounds was determined using the modified Ellman’s method. The compounds were dissolved in DMSO (10 mmol/L) and then diluted with PB (phosphate buffer) solution to attain a range of final concentrations. […] Briefly, 100 μL of different concentrations of the test or standard compounds and 100 μL of AChE/BuChE (0.5 U/mL) were added into 48-well plates and then co-incubated at 37 °C for 30 min. […] All concentrations mentioned are final."}, "[1]": {"molecular_target": "T2, BuChE (from equine serum) (Equus caballus, UniProt P81908)", "T2 construct": "BuChE (from equine serum); purchased Sigma Chemical Company (St. Louis, MO, USA); host or cells: equine serum", "T2 sequence (P81908 whole entry)": "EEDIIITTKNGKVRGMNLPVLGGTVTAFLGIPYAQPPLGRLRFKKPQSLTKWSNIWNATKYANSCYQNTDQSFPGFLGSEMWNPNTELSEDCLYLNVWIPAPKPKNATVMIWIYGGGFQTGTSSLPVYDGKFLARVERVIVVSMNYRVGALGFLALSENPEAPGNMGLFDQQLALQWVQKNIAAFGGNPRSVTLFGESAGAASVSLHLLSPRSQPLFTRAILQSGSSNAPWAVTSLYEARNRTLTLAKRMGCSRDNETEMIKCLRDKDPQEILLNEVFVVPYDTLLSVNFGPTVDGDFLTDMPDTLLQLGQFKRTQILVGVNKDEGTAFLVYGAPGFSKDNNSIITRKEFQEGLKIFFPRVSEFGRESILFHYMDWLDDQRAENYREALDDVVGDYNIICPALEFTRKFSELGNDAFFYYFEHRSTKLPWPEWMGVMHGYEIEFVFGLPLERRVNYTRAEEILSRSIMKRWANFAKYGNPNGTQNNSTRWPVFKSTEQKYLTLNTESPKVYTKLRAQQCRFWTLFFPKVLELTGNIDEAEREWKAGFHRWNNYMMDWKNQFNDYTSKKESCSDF", "experiment": "biochemical", "settings": "mean ± SD of three experiments, read-out: BuChE Inhibition (IC50)", "experimental": "as §4"}}}
{"smiles": "O=C1c2cc(NS(=O)(=O)c3ccccc3F)ccc2-n2c1nc1ccccc1c2=O", "note": "[4h]", "values": [{"measurement": "IC50", "setting": "NO in BV2 cells", "value": "620 ± 70", "unit": "nM"}, {"measurement": "inhibition at 100 µM", "setting": "Aβ1-42", "value": "63.2 ± 2.33", "unit": "%"}, {"measurement": "Papp A→B at 2 h, 75 μM", "setting": "P-gp (MDR1); apical-to-basal, 2 h", "value": "18.1 ± 2.7", "unit": "×10⁻⁶ cm/s"}, {"measurement": "Papp B→A at 2 h, 75 μM", "setting": "P-gp (MDR1); basal-to-apical, 2 h", "value": "17.4 ± 2.2", "unit": "×10⁻⁶ cm/s"}, {"measurement": "efflux ratio at 2 h, 75 μM", "setting": "P-gp (MDR1); efflux ratio, read-out: ER Papp BL/Papp AP", "value": 0.96}, {"measurement": "ER Papp BL/Papp AP", "setting": "MDCKII-MDR1 cells", "value": "less than two"}, {"measurement": "Intracellular ROS levels in BV2 cells", "setting": "BV2 cells", "value": "significantly reduced intracellular ROS levels"}, {"measurement": "IC50", "setting": "AChE (from electric eel); AChE from electric eel, mean ± SD of three experiments, read-out: AChE Inhibition (IC50)", "value": "130 ± 40", "unit": "nM"}, {"measurement": "Selective Index, IC50 (BChE)/IC50 (AChE)", "setting": "AChE (from electric eel); AChE selectivity index", "value": 47}, {"measurement": "IC50", "setting": "[1]", "value": "6110 ± 150", "unit": "nM"}]}
